The record followed here is patent US11274332B2, “Methods of administering 3,4-diaminopyridine” (SERB SA, priority 2011, dated 2022).

This data set in a line: Example 18 Part 1: single ascending dose PK (5-30 mg) in slow and fast acetylators. It is filed as in vivo, human. The conditions noted are these: for half-life / Cmax: both sexes, human, plasma; for half-life: oral, 5-30 mg, read-out: Mean terminal elimination half-lives; for Cmax: po, single oral doses 5 to 30 mg, read-out: mean Cmax, range over doses. Here is the method: The following method was used to analyze concentrations of 3,4-diaminopyridine and N-(4-aminopyridin-3-yl)acetamide in plasma and urine samples for the experiments in Example 18. In the LC/MS/MS method, the human plasma and urine samples were extracted using acetonitrile containing 0.1% formic acid. Samples were analyzed by using HPLC with positive ion electrospray MS/MS detection. The column was an Atlantis HILIC Silica column (3 μm, 3×50 mm) at a temperature of 40° C. Mobile phase A was water containing ammonium formate (20 mM) and 0.1% formic acid. Mobile phase B was acetonitrile/isopropanol (90/10; v/v) containing 0.1% formic acid. The flow rate was 0.90 mL/minute. The gradient conditions for human plasma and urine samples were as follows:
The LC/MS/MS method was validated to quantify 3,4-DAP in human plasma in the linear calibration range of 0.500 to 500 ng/mL and from 1.00 to 1000 ng/mL for the 3-N-acetyl metabolite.
The primary objective of the study was to assess the safety and tolerability of 3,4-DAP phosphate after single and multiple doses. The secondary objectives of the study were • Part 1 only: To determine the dose-related PK profile of amifampridine and of 3-N-acetyl amifampridine after single, escalating doses of 3,4-DAP phosphate • Part 2 only: To assess the steady-state plasma PK and accumulation of amifampridine and of 3-N-acetyl amifampridine over multiple days of dosing with 3,4-DAP phosphate An exploratory objective was to examine the overall activity of the N-acetyl transferase enzymes on the metabolism of amifampridine by assessing the PK of amifampridine and 3-N-acetyl amifampridine with phenotypic acetylation activity and genotyping determination of NAT2 gene polymorphisms. Study Design and Plan
This open-label study in healthy subjects (male and female) was conducted in 2 parts. A total of 26 healthy male and female subjects, 12 in Part 1 (at least 5 of each sex), 4 in Part 2 Group 1, and 10 in Part 2 Group 2 (at least 4 of each sex) were enrolled into the study. The same subjects were not enrolled to participate in both parts. Subjects in Part 2 were dosed only after all subjects of Part 1 completed dosing and at least 24-hours of follow-up safety evaluation after the last dose were completed.
All subjects were characterized for their metabolic acetylation phenotype and NAT2 genotype in order to divide subjects into two groups of acetylators. Volunteers were genetically typed for highly variant alleles of the N-acetyl transferase 2 enzyme (NAT2) domain on chromosome 8 (according to Example 16) and were phenotyped for acetylation rates with a caffeine challenge test (according to Example 15a). Approximately equal numbers of slow and fast acetylators (as defined by a caffeine challenge test in Example 15a) were enrolled in each group. In Part 2, very slow acetylators with NAT2 activity (ratio 1, Example 15a) below 0.06 were excluded from participation in the study. In each part of the study, subjects were assessed for PK, safety, and tolerability and all doses were administered within 30 min of ingestion of a meal or a snack.
Part 1 was a dose-proportionality study in 12 healthy subjects each receiving 4 ascending single oral doses of 3,4-DAP phosphate in a sequential manner (5 mg, 10 mg, 20 mg, and 30 mg). For all 12 subjects, the first 3 doses of oral 3,4-DAP phosphate (5-20 mg) were administered on 3 consecutive days (Days 1-3). Two fast and two slow acetylators (as defined by a caffeine challenge test in Example 15a) were selected as the first 4 enrolled subjects (sentinel subjects). For the 2 fast acetylators the 30 mg dose was administered on Day 4. […] Safety and tolerability data collected for all 4 subjects were reviewed and the safety and tolerability results of the 30 mg dose for these 4 sentinel subjects were acceptable. The 30 mg dose was given to the remaining 8 non-sentinel subjects on Day 7. […]

Where two headings read alike, the source gives them in different places.

In general, Cmax refers to the highest concentration seen after dosing.

For `Nc1ccncc1N` [3,4-DAP, 3,4-diaminopyridine], where the note is “5 mg single dose”, the “Mean AUC0-t Slow/fast Ratio” value is reported as 10.4, the “Mean CL/F Slow/fast Ratio” value came to 0.114, the “Mean Cmax Slow/fast Ratio” value came to 4.50 and the “Mean t1/2 Slow/fast Ratio” value stood at 3.68. Further, for the setting “10 mg single dose”, the “Mean AUC0-t Slow/fast Ratio” value is given as 6.94, the “Mean CL/F Slow/fast Ratio” value amounted to 0.163, the “Mean Cmax Slow/fast Ratio” value is given as 3.47 and the “Mean t1/2 Slow/fast Ratio” value was 2.15. In addition, under “20 mg single dose”, the “Mean AUC0-t Slow/fast Ratio” value worked out at 5.75, the “Mean CL/F Slow/fast Ratio” value was 0.186, the “Mean Cmax Slow/fast Ratio” value was 3.50 and the “Mean t1/2 Slow/fast Ratio” value amounted to 2.38. Further, where the note is “30 mg single dose”, the “Mean AUC0-t Slow/fast Ratio” value is on record as 5.29, the “Mean CL/F Slow/fast Ratio” value is given as 0.196, the “Mean Cmax Slow/fast Ratio” value is 3.51 and the “Mean t1/2 Slow/fast Ratio” value is given as 1.88. For the setting “fast acetylators”, the half-life lay in the range of 0.603 to 1.65 h, the “AUC increase over 6-fold dose range (5 to 30 mg)” value was 15.1 fold and the “Cmax increase over 6-fold dose range (5 to 30 mg)” value turned out to be 6.41 fold. Moreover, for the setting “slow acetylators”, the half-life fell in the range of 2.22 to 3.11 h, the “AUC increase over 6-fold dose range (5 to 30 mg)” value came to 7.64 fold and the “Cmax increase over 6-fold dose range (5 to 30 mg)” value is reported as 5.01 fold. In addition, the Cmax (fast acetylator phenotype) lay in the range of 3.98 to 25.5 ng/mL. Further, the Cmax (slow acetylator phenotype) was in the range of 17.9 to 89.6 ng/mL.
